Data on one compound can be found in patent US20250367229A1, “Treatment of Immune-Related Disorders, Kidney Disorders, Liver Disorders, Hemolytic Disorders, and Oxidative Stress-Associated Disorders Using NRH, NARH and Reduced Derivatives Thereof” (MitoPower LLC, priority 2021, published 2025).

Series [1] deals with CD8^+ T cells. Description: Ex vivo polyclonal immune activation model: intracellular cytokine production in CD8+ T cells (flow cytometry). The following applies: 250 μM, 18 hours, PBMCs stimulated with anti-CD3 and anti-CD28 antibodies; p<0.05 Mann-Whitney U test. The class given is cell-based, human. The protocol: Heparinized venous blood was collected from healthy human adult donors. Peripheral blood mononuclear cells (PBMCs) were isolated by Ficoll-Hypaque density-gradient centrifugation. PBMCs (1.0×10^6) were seeded in round-bottom, 96-well plates in 200 μL of medium, unstimulated or stimulated with an anti-CD3 antibody ([…], clone-HIT3a, Biolegend) plus an anti-CD28 antibody (1 μg/mL, clone-CD28.2, Biolegend) to induce T-cell activation, and incubated in cell-culture medium. The PBMCs were unstimulated or stimulated with anti-CD3 and anti-CD28 antibodies to induce T-cell activation, in the absence or presence of 250 μM NRH. After 18 hours of incubation, lymphocytes were analyzed for intracellular levels of IFN-γ, TNF-α and IL-2 by flow cytometry. Intracellular cytokine production was stopped by treating the cells with Golgi stop after 1 hr of treatment.

For series [2], the system named is peripheral blood mononuclear cells (PBMCs). Put plainly: Extracellular acidification rate (ECAR, a measure of glycolysis) in activated PBMCs, Seahorse XF. The class given is cell-based, human. The following applies: 250 μM, 4 hr, PBMCs stimulated with anti-CD3 and anti-CD28 antibodies. The protocol:
PBMCs (1.5×10^6) obtained from a healthy human adult donor were unstimulated or stimulated with anti-CD3 and anti-CD28 antibodies (1 μg/mL each) to induce T-cell activation, in the absence or presence of 250 μM NRH for 4 hr. The cells were then washed and plated on poly-D-lysine-coated Seahorse XF microplates at a density of 3×10^5 cells per well (5 replicates). The plates were centrifuged briefly and incubated at 37° C. in a non-CO2 incubator for 30 min to settle the cells in the bottom of the plate. Extracellular acidification rate (ECAR, a measure of glycolysis) and oxygen consumption rate (OCR, a measure of oxidative phosphorylation) were determined using a Seahorse XF cell mito stress test kit and a Seahorse Xfe96 analyzer (Agilent Technologies, Santa Clara, California) under basal condition or in response to 1.0 μM oligomycin (an inhibitor of ATP synthase), 1.5 μM carbonyl cyanide-p-trifluoromethoxyphenylhydrazone (FCCP, a mitochondrial uncoupler), 0.5 μM rotenone (an inhibitor of electron transport at complex I) and antimycin A (an inhibitor of electron transport at cytochrome c reductase). PBMCs include monocytes and lymphocytes including T cells, B cells and natural killer cells.

The subject of series [3] is CD4^+ T cells. Description: Cell death including apoptosis (annexin V, flow cytometry) of CD4+ T cells with depolarized mitochondria. It is filed as cell-based, human. The following applies: 250 μM, 24 hr, unstimulated or stimulated with anti-CD3 and anti-CD28 antibodies. The protocol:
(§1) PBMCs (10^6 cells per test group) obtained from healthy human adult donors were unstimulated or stimulated with anti-CD3 and anti-CD28 antibodies to induce T-cell activation, in the absence or presence of 250 μM of NRH or NRH-triacetate (NRHTA). Measurements were made at 5, 15 and 24 hr after treatment.
(§2) After the indicated time of incubation, the PBMCs were stained with anti-CD3, anti-CD4 and anti-CD8 antibodies (Biolegend), JC-1 (1 μM, Thermo Fisher) and annexin V (Thermo Fisher) prior to analysis by flow cytometry. Annexin V binds to cell-surface phosphatidylserine, which is a marker for different forms of cell death including apoptosis and necrosis. The stained cells were re-suspended in phosphate-buffered saline (PBS) and acquired in a Cytek Aurora flow cytometer using a FlowJo software (v10) for analysis. About 200,000-300,000 cells were acquired in the flow cytometer for analysis. Standard procedures for spectral compensation were performed to obtain cell populations. Lymphocytes identified by forward and side scatter were gated to obtain CD3^+/CD4^+ and CD3^+/CD8^+ T-cell populations. Those T-cell populations were gated to identify the red and green signals for JC-1 aggregate and monomer, respectively, and annexin V. The percentage of cells staining green by JC-1 monomer was used to determine the percentage of cells with depolarized mitochondria. […]
For orientation: In flow cytometry, cells or beads pass a laser one at a time.

Series [4] has as its system CD8^+ T cells. Put plainly: Cell death including apoptosis (annexin V, flow cytometry) of CD8+ T cells with depolarized mitochondria. The class given is cell-based, human. Particulars: 250 μM, 24 hr, unstimulated or stimulated with anti-CD3 and anti-CD28 antibodies. The protocol: as §1, §2
Series [5] in a line: Stability in human serum in vitro (absorbance over time). The following applies: 100 μM, 37° C. It is filed as in vitro ADME. The protocol:
Three blood samples were collected from healthy human donors with the same blood group in serum separator vacutainer gel tubes. The samples were centrifuged at 1,800 g to separate serum. The serum samples obtained were pooled together into a separate tube.
NR, NRH and NRH-triacetate (NRHTA) were initially dissolved in DMSO and then diluted with normal saline to obtain a 1 mM stock solution of each compound. 100 μL of stock solution was added to 900 μL of pooled serum to assess the stability of the test compound in human serum. 200 μL of saline with 1,800 μL of pooled serum was used to prepare a solution for blanking and as a reference measurement. The stock solutions were diluted in the pooled serum and normal saline to prepare 100 μM solutions of the test compounds.
In previous experiments, spectral scans between 190 nm and 1100 nm were performed to determine absorbance maxima for NR, NRH and NRHTA, which have maximal absorbance at 265 nm, 340 nm and 331 nm, respectively, in solution.
The stability of a test compound in human serum was determined by a change in the concentration of the compound as measured by a change in absorbance at the maximal absorbance wavelength for the compound as a function of time. The test compounds at 100 μM were incubated in human serum at 37° C. Absorbance measurements were made at 0 min (T0), 5 min, 30 min, 120 min, 240 min, 360 min and 1440 min (24 hr). The relative change in absorbance compared to T0 was plotted and used for statistical analysis. The analysis was performed in triplicates.

Take `NC(=O)C1=CN([C@@H]2O[C@H](CO)[C@@H](O)[C@H]2O)C=CC1` [NRH, N-(β-D-ribofuranosyl)dihydronicotinamide]: in series [1], the “production of IFN-γ in activated CD8+ T cells” value was “significantly reduced”, the “production of IL-2 in activated CD8+ T cells” value is on record as “significantly reduced” and the “production of TNF-α in activated CD8+ T cells” value is “significantly reduced”. The “extracellular acidification rate (ECAR, a measure of glycolysis) in activated PBMCs” value in series [2] is listed as “significantly reduced”. The “cell death including apoptosis of CD4+ T cells with depolarized mitochondria” value in series [3] is “reduced cell death”. Also, the “cell death including apoptosis of CD8+ T cells with depolarized mitochondria” value in series [4] is reported as “reduced cell death”. The “compound remaining intact in human serum after 6 hr” value in series [5] (6 hr) was “Most of both NRH and NRH-triacetate remained intact”. The “stability in human serum compared with NR” value in series [5] (up to 24 hr, p<0.05) is given as “much more stable”.
